Test results: the kinase profiling compilation of Christmann-Franck et al. (2016)

Experiments:
Test in all cases: radiometric filter-binding kinase assay
MARK2 (human) = MARK2 (human) (UniProt Q7KZI7)
MINK1 (human) = MINK1 (human) (UniProt Q8N4C8)
MKNK1 (human) = MKNK1 (human) (UniProt Q9BUB5)
MKNK2 (human) = MKNK2 (human) (UniProt Q9HBH9)
NEK2 (human) = NEK2 (human) (UniProt P51955)
NTRK1 (human) = NTRK1 (human) (UniProt P04629)
PHKG1 (human) = PHKG1 (human) (UniProt Q16816)
PIM2 (human) = PIM2 (human) (UniProt Q9P1W9)
PKN2 (human) = PKN2 (human) (UniProt Q16513)
PRKAA1 or PRKAA2 (rat) = conditions: accession and sequence are those of the human protein
PRKACA (human) = PRKACA (human) (UniProt P17612)
PRKCA (human) = PRKCA (human) (UniProt P17252)
RPS6KA1 KD1 KD2 (human) = RPS6KA1 KD1 KD2 (human) (UniProt Q15418)
SRC (human) = SRC (human) (UniProt P12931)
[1] = target: STK11 CAB39 STRADA (human) (UniProt Q9Y376+Q7RTN6+Q15831)
STK3 (human) = STK3 (human) (UniProt Q13188)
YES1 (human) = YES1 (human) (UniProt P07947)

Sequence of STK11 CAB39 STRADA (human) (Q15831 whole entry, looked up): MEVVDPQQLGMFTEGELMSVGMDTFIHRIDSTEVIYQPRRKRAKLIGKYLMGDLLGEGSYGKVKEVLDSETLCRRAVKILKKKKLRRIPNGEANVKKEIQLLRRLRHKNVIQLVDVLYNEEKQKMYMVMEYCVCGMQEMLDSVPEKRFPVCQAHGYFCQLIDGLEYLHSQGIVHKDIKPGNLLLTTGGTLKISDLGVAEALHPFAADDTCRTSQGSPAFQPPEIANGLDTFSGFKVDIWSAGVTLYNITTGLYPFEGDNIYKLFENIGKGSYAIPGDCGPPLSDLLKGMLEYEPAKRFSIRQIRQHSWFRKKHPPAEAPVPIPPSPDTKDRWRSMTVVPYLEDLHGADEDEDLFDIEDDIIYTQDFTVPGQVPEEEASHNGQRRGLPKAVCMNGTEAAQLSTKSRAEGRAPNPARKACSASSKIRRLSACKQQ
Sequence of STK11 CAB39 STRADA (human) (Q7RTN6 whole entry, looked up): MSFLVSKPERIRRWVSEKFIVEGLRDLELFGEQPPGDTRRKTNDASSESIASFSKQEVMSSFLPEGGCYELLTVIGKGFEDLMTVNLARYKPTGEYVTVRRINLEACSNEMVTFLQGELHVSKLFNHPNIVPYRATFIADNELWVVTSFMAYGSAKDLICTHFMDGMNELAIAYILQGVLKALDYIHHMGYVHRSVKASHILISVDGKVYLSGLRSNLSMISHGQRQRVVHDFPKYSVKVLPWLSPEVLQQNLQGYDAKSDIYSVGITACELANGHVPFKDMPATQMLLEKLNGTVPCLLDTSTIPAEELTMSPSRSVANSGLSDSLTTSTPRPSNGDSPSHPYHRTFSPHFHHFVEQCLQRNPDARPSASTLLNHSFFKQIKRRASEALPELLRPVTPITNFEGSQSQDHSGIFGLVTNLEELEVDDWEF
Sequence of STK11 CAB39 STRADA (human) (Q9Y376 whole entry, looked up): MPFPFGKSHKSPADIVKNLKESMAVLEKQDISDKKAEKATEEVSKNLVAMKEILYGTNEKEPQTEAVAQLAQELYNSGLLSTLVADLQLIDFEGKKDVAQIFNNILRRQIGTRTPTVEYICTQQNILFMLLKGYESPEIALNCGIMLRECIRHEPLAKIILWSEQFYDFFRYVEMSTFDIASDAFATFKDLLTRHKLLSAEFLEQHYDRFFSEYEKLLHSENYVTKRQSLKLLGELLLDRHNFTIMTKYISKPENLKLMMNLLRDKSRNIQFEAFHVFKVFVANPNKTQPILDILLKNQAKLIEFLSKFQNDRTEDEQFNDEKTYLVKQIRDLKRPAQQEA
Sequence of SRC (human) (P12931 whole entry, looked up): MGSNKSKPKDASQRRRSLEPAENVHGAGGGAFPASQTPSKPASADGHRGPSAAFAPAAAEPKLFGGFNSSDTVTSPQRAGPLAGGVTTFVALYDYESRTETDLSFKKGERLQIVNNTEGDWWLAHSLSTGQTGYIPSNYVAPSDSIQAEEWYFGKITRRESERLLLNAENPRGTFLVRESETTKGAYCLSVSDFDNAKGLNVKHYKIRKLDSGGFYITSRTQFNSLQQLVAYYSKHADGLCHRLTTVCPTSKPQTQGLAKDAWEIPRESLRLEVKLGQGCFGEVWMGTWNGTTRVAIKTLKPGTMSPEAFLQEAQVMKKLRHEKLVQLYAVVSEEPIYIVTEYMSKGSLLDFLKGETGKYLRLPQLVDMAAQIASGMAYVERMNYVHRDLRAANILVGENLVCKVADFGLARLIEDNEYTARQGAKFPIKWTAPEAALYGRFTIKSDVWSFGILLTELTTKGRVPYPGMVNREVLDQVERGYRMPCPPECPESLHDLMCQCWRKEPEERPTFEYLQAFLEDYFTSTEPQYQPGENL
Sequence of NEK2 (human) (P51955 whole entry, looked up): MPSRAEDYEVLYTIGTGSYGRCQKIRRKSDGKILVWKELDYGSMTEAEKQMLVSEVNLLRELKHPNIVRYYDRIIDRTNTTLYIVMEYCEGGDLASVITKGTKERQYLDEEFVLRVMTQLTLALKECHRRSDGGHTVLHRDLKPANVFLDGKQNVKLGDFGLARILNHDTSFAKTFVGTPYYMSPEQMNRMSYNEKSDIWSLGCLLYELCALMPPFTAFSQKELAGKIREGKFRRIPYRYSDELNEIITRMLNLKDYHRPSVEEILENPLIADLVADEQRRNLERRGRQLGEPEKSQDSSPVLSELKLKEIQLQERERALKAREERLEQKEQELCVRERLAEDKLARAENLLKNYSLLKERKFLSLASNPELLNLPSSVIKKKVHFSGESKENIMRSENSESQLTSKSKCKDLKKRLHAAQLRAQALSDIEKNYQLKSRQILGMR
Sequence of MARK2 (human) (Q7KZI7 whole entry, looked up): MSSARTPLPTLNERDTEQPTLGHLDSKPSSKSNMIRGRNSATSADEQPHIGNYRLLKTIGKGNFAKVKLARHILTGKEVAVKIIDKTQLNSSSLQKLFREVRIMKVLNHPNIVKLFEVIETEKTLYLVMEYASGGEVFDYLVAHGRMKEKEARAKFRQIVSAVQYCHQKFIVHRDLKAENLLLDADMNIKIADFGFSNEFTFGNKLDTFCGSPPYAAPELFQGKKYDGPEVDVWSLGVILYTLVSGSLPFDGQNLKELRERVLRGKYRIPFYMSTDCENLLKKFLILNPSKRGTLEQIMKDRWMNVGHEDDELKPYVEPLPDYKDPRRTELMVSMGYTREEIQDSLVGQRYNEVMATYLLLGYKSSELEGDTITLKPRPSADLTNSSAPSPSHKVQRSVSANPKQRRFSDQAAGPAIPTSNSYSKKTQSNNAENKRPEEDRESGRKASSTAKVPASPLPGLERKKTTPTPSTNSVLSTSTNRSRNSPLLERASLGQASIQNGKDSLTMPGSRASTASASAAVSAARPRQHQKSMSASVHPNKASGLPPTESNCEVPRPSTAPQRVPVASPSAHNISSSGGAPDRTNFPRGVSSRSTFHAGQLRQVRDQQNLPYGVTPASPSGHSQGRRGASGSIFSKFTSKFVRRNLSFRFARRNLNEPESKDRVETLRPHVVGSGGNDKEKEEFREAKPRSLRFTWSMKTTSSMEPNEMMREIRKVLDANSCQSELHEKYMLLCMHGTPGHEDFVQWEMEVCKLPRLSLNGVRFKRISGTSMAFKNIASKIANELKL
Sequence of MINK1 (human) (Q8N4C8 whole entry, looked up): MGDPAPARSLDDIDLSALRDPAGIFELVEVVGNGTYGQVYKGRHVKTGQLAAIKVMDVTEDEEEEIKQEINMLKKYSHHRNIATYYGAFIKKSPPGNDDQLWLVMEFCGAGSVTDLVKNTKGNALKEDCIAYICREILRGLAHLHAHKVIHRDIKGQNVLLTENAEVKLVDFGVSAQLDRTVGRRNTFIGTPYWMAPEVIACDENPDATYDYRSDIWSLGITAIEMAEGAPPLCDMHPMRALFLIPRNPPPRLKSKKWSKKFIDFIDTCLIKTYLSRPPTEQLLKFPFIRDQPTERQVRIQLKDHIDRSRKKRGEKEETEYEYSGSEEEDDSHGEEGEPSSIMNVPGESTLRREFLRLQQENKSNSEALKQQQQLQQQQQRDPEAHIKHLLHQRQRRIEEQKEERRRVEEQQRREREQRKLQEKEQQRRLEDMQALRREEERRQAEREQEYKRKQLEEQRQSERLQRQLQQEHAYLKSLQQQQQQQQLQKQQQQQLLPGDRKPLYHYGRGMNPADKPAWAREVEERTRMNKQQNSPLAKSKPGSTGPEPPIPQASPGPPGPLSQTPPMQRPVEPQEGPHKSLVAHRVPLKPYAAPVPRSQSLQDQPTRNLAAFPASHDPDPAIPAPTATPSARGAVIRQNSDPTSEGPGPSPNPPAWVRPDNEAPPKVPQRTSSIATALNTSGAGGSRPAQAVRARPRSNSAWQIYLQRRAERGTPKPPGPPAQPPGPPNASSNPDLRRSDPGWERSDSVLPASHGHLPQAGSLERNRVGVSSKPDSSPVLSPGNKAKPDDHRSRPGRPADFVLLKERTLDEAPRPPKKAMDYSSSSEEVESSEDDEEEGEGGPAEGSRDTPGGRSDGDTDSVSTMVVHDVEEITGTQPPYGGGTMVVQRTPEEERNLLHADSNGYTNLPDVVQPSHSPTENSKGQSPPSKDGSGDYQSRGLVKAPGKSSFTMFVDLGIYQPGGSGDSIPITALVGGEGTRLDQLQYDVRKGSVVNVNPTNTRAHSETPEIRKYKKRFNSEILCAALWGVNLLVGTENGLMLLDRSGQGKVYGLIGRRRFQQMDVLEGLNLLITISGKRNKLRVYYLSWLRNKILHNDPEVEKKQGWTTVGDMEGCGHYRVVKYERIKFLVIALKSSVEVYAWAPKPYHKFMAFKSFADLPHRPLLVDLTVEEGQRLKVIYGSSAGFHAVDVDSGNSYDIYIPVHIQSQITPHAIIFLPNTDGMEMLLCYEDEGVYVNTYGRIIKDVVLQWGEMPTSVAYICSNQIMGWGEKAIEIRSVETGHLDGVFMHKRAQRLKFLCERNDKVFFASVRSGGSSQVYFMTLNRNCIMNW

## CNc1nc(-c2ccc3c(N)n[nH]c3c2)cc(N2C[C@@H](C(=O)NC3CCCCC3)CC[C@H]2C)n1
MARK2 (human); compound 0.01 µM
  residual activity: 113%
MARK2 (human); compound 0.1 µM
  residual activity: 114%
MARK2 (human); compound 1.0 µM
  residual activity: 96%
MARK2 (human); compound 10.0 µM
  residual activity: 102%
MINK1 (human); compound 0.01 µM
  residual activity: 121%
MINK1 (human); compound 0.1 µM
  residual activity: 110%
MINK1 (human); compound 1.0 µM
  residual activity: 89%
MINK1 (human); compound 10.0 µM
  residual activity: 74%
MKNK1 (human); compound 0.01 µM
  residual activity: 106%
MKNK1 (human); compound 0.1 µM
  residual activity: 108%
MKNK1 (human); compound 1.0 µM
  residual activity: 111%
MKNK1 (human); compound 10.0 µM
  residual activity: 92%
MKNK2 (human); compound 0.01 µM
  residual activity: 91%
MKNK2 (human); compound 1.0 µM
  residual activity: 80%
MKNK2 (human); compound 10.0 µM
  residual activity: 94%
NEK2 (human); compound 0.01 µM
  residual activity: 118%
NEK2 (human); compound 0.1 µM
  residual activity: 118%
NEK2 (human); compound 1.0 µM
  residual activity: 94%
NEK2 (human); compound 10.0 µM
  residual activity: 91%
NTRK1 (human); compound 1.0 µM
  residual activity: 94%
NTRK1 (human); compound 10.0 µM
  residual activity: 84%
PHKG1 (human); compound 0.01 µM
  residual activity: 106%
PHKG1 (human); compound 0.1 µM
  residual activity: 108%
PHKG1 (human); compound 1.0 µM
  residual activity: 101%
PHKG1 (human); compound 10.0 µM
  residual activity: 78%
PIM2 (human); compound 0.01 µM
  residual activity: 97%
PIM2 (human); compound 1.0 µM
  residual activity: 97%
PIM2 (human); compound 10.0 µM
  residual activity: 110%
PKN2 (human); compound 0.01 µM
  residual activity: 90%
PKN2 (human); compound 0.1 µM
  residual activity: 102%
PKN2 (human); compound 1.0 µM
  residual activity: 118%
PKN2 (human); compound 10.0 µM
  residual activity: 81%
PRKAA1 or PRKAA2 (rat); compound 0.01 µM
  residual activity: 107%
PRKAA1 or PRKAA2 (rat); compound 0.1 µM
  residual activity: 111%
PRKAA1 or PRKAA2 (rat); compound 1.0 µM
  residual activity: 91%
PRKAA1 or PRKAA2 (rat); compound 10.0 µM
  residual activity: 44%
PRKACA (human); compound 0.01 µM
  residual activity: 103%
PRKACA (human); compound 0.1 µM
  residual activity: 111%
PRKACA (human); compound 1.0 µM
  residual activity: 102%
PRKACA (human); compound 10.0 µM
  residual activity: 84%
PRKCA (human); compound 0.01 µM
  residual activity: 104%
PRKCA (human); compound 0.1 µM
  residual activity: 105%
PRKCA (human); compound 1.0 µM
  residual activity: 98%
PRKCA (human); compound 10.0 µM
  residual activity: 96%
RPS6KA1 KD1 KD2 (human); compound 0.01 µM
  residual activity: 123%
RPS6KA1 KD1 KD2 (human); compound 0.1 µM
  residual activity: 113%
RPS6KA1 KD1 KD2 (human); compound 1.0 µM
  residual activity: 86%
RPS6KA1 KD1 KD2 (human); compound 10.0 µM
  residual activity: 40%
SRC (human); compound 0.01 µM
  residual activity: 101%
SRC (human); compound 0.1 µM
  residual activity: 105%
SRC (human); compound 1.0 µM
  residual activity: 95%
[1]; compound 0.01 µM
  residual activity: 104%
[1]; compound 0.1 µM
  residual activity: 124%
[1]; compound 1.0 µM
  residual activity: 110%
[1]; compound 10.0 µM
  residual activity: 103%
STK3 (human); compound 0.01 µM
  residual activity: 116%
STK3 (human); compound 0.1 µM
  residual activity: 128%
STK3 (human); compound 1.0 µM
  residual activity: 91%
STK3 (human); compound 10.0 µM
  residual activity: 84%
YES1 (human); compound 0.01 µM
  residual activity: 122%
YES1 (human); compound 0.1 µM
  residual activity: 119%
YES1 (human); compound 1.0 µM
  residual activity: 106%
YES1 (human); compound 10.0 µM
  residual activity: 98%
